# Laboratory results: patent US20090111836A1, “Angular Pyranocoumarins, Process for Preparation and Uses Thereof” (CITY UNIVERSITY OF HONG KONG, priority 2007, published 2009)
# “And” between values parts separate entries of the source, which are not always exact repeats. Identical values can stand only once. “Also recorded” adds a separate entry of the source.
# Assays:
# Assay type in all cases: cell-based, human
# P-gp [1] = assay: Immunoblotting analysis of P-gp expression, K562-DR; details: 4 μM, 72 hours
# Protocol: (§1) Immunoblotting analysis of P-gp expression: cells were treated with 4 μM of cis-DMDCK, 4 μM of cis-DMDBK, 4 μM of trans-DMDCK, or 4 μM of trans-DMDBK for 72 hours. Treated cells were collected and mixed well in ice-cold lysis buffer (50 mM Tris pH7.4, 100 mM NaCl, 2 mM EDTA, 1% sodium deoxycholate, 0.1% SDS, 1% triton X-100, 2 mM PMSF, 1% aprotinin) for 30 minutes and then centrifuged to get the total protein. Protein concentration was determined using Bradford assay. In this experiment, 50 μg total protein was separated by 8% SDS-PAGE and electro-transferred to nitrocellulose membranes. The membrane was blocked by 5% skim milk/0.1% Tween-20/TBS (10 mM Tris pH7.5, 100 mM NaCl), and then incubated with anti-P-pg antibody for 1 hour, followed by horseradish-peroxidase-conjugated secondary antibody for another 1 hour. Protein bands were detected by the ECL method.
# KB V1 cells [2] = assay: Reversal of multidrug resistance (fold decrease of anticancer drug IC50), KB V1
# Protocol: (§2) Cells and cell culture: cell lines used in the experiments are human hepatoma cell line (HepG2), human leukemia cell line (K562), human epidermoid carcinoma cell line (KB-3-1) and their multidrug resistant sublines HepG2-DR, K562-DR. and KB V1. The culture conditions for all cells are following: at 37° C. and 5% CO2), KB-3-1 and KBV1 were cultured in MEM medium containing 10% fetal bovine serum and 100 U/mL antibiotics; K562, K562-DR, HepG2, HepG2-DR were cultured in RPMI-1640 medium containing 10% fetal bovine serum and 100 U/mL, antibiotics. For maintaining the phenotypic characteristics of multidrug resistance, 1.2 μM and 0.1 μM doxorubicin were respectively added into the mediums of HepG2-DR and K562-DR; 200 ng/mL vinblastine was added into the medium of KBV1. Drug resistant cells were grown in drug free medium for at least 7 days before test.
# (§3) Each growth inhibition experiment must be repeated three times and results are expressed as mean±standard deviation (SD). Solvents and media were included as blank control.
# (§4) In SRB assay, cells are inoculated at 5000 cells/well in a 96-well microplate and incubated overnight to let cells adhere. Drug treatment lasts for 72 hours and cells are fixed for 1 hour at 4° C. with 50 μl ice-cold 15% trichloroacetic acid and washed with triple-distilled water 5 times. Cellular protein is stained by adding 50 μl of 0.4% SRB in 1% acetic acid for 10 minutes, rinsed with 1% acetic acid 5 times and air-dried. The protein-bound dye is dissolved in 100 μl per well of 10 mM Tris base (pH 10.5). The color intensity of SRB, which positively correlate to cell number in preliminary experiments, is estimated at OD 515 nm.
# (§5) 1. Materials and methods: the same with I.
# (§6) To evaluate the multidrug resistance reversing ability of (±)-Praeruptorin A derivatives, IC50 values of anticancer drugs in the presence and absence of cis-DMDCK, cis-DMDBK, trans-DMDCK, or trans-DMDBK at certain concentration were determined in HepG2-DR, K562-DR and KB V1 cells. The fold decrease of IC50 value of an anticancer drug in certain cell line achieved by a test compound is calculated (fold decrease=IC50 of an anti-tumor drug alone/IC50 of the anti-tumor drug in combination with the test compound) and is used for evaluating the ability of the test compound to reduce drug resistance. The larger the fold decrease value is, the stronger its ability to reverse drug resistance is. The results were average values of three repetitive tests. Verapamil (P-glycoprotein modulator) is the positive control.
# KB V1 cells [3] = assay: SRB growth inhibition assay, KB V1; details: IC50 KB V1 / IC50 KB-3-1
# P-gp [4] = assay: Immunoblotting analysis of P-gp expression, KB V1; details: KB V1, 4 μM, 72 hours
# Protocol: as §1
# HepG2-DR cells [5] = assay: Reversal of multidrug resistance (fold decrease of anticancer drug IC50), HepG2-DR
# Protocol: as §2, §3, §4, §5, §6
# K562-DR cells = assay: MTT growth inhibition assay, K562-DR; details: IC50 K562-DR / IC50 K562
# Protocol: K562, K562-DR, HepG2, HepG2-DR were cultured in RPMI-1640 medium containing 10% fetal bovine serum and 100 U/mL, antibiotics. […] Drug test: […] New calorimetric cytotoxicity assay for anticancer-drug screening. […] Mosmann T. Rapid colorimetric assay for cellular growth and survival: application to proliferation and cytotoxicity assays. […] Gerlier D, Thomasset N. […] Each growth inhibition experiment must be repeated three times and results are expressed as mean±standard deviation (SD). Solvents and media were included as blank control. In MTT assay, cells are inoculated at 5000 cells/well and are incubated overnight. Drug treatment lasts for 68 h. MTT (5 mg/ml in PBS) is added to each well (1:10 dilution). […] Viable cell number is estimated by correlating to OD at 570 nm.
# HepG2-DR cells [6] = assay: SRB growth inhibition assay, HepG2-DR; details: IC50 HepG2-DR / IC50 HepG2
# Protocol: K562, K562-DR, HepG2, HepG2-DR were cultured in RPMI-1640 medium containing 10% fetal bovine serum and 100 U/mL, antibiotics. […] Drug test: […] New calorimetric cytotoxicity assay for anticancer-drug screening. […] Mosmann T. Rapid colorimetric assay for cellular growth and survival: application to proliferation and cytotoxicity assays. […] Gerlier D, Thomasset N. […] Each growth inhibition experiment must be repeated three times and results are expressed as mean±standard deviation (SD). Solvents and media were included as blank control. In SRB assay, cells are inoculated at 5000 cells/well in a 96-well microplate and incubated overnight to let cells adhere. Drug treatment lasts for 72 hours and cells are fixed for 1 hour at 4° C. with 50 μl ice-cold 15% trichloroacetic acid and washed with triple-distilled water 5 times. […] The protein-bound dye is dissolved in 100 μl per well of 10 mM Tris base (pH 10.5). The color intensity of SRB, which positively correlate to cell number in preliminary experiments, is estimated at OD 515 nm.
Compound,Change in P-gp (MDR1) expression level (P-gp [1]),"Reversing parameter: fold decrease of IC50, verapamil (KB V1 cells [2]; KB V1, 2 μM test compound) [fold]","Reversing parameter: fold decrease of IC50 of Doxorubicin (KB V1 cells [2]; KB V1, 2 μM test compound) [fold]","Reversing parameter: fold decrease of IC50 of Puromycin (KB V1 cells [2]; KB V1, 2 μM test compound) [fold]","Reversing parameter: fold decrease of IC50 of Vinblastine (KB V1 cells [2]; KB V1, 2 μM test compound) [fold]","Reversing parameter: fold decrease of IC50, verapamil (KB V1 cells [2]; KB V1, 4 μM test compound) [fold]","Reversing parameter: fold decrease of IC50 of Doxorubicin (KB V1 cells [2]; KB V1, 4 μM test compound) [fold]","Reversing parameter: fold decrease of IC50 of Puromycin (KB V1 cells [2]; KB V1, 4 μM test compound) [fold]","Reversing parameter: fold decrease of IC50 of Vinblastine (KB V1 cells [2]; KB V1, 4 μM test compound) [fold]",Resistant ratio (KB V1 cells [3]),Change in P-gp (MDR1) expression level (P-gp [4]),Reversing parameter: fold decrease of IC50 of Doxorubicin (HepG2-DR cells [5]; 1 μM test compound),Reversing parameter: fold decrease of IC50 of Puromycin (HepG2-DR cells [5]; 1 μM test compound),Reversing parameter: fold decrease of IC50 of Vinblastine (HepG2-DR cells [5]; 1 μM test compound),Reversing parameter: fold decrease of IC50 of Doxorubicin (HepG2-DR cells [5]; 2 μM test compound),Reversing parameter: fold decrease of IC50 of Puromycin (HepG2-DR cells [5]; 2 μM test compound),Reversing parameter: fold decrease of IC50 of Vinblastine (HepG2-DR cells [5]; 2 μM test compound),Reversing parameter: fold decrease of IC50 of Doxorubicin (HepG2-DR cells [5]; 4 μM test compound),Reversing parameter: fold decrease of IC50 of Puromycin (HepG2-DR cells [5]; 4 μM test compound),Reversing parameter: fold decrease of IC50 of Vinblastine (HepG2-DR cells [5]; 4 μM test compound),further results
"COc1ccc(C(=O)O[C@@H]2c3c(ccc4ccc(=O)oc34)OC(C)(C)[C@@H]2OC(=O)c2ccc(OC)c(OC)c2)cc1OC (racemic) [cis-DMDBK, (±)-3′-O,4′-O-bis(3,4-dimethoxybenzoyl)-cis-khellactone]",no detectable alteration; also recorded: not observed,6.8 ± 2.9,5.6 ± 2.4,15.4 ± 3.3,3.5 ± 1.4,83.3 ± 35.3,16.1 ± 9.5,36.8 ± 16.6,51.6 ± 11.0,0.46,no detectable alteration; also recorded: not observed,6.2 ± 0.7 fold,4.6 ± 1.3 fold,4.8 ± 4.1 fold,33.5 ± 7.5 fold,15.4 ± 4.6 fold,12.4 ± 6.1 fold,117.1 ± 13.8 fold,74.6 ± 21.2 fold,82.1 ± 13.1 fold,"Reduction of drug resistance to the four anti-tumor drugs (HepG2-DR cells [5]; 4 μM test compound, range over vinblastine, doxorubicin, puromycin, paclitaxel): 62-117 times; Resistant ratio (K562-DR cells): 0.91; Resistant ratio (HepG2-DR cells [6]): 1.19"
"COc1ccc(/C=C/C(=O)O[C@@H]2c3c(ccc4ccc(=O)oc34)OC(C)(C)[C@@H]2OC(=O)/C=C/c2ccc(OC)c(OC)c2)cc1OC (racemic) [cis-DMDCK, (±)-3′-O,4′-O-bis(3,4-dimethoxycinnamoyl)-cis-khellactone]",no detectable alteration; also recorded: not observed,128.2 ± 53.8,19.1 ± 11.1,61.4 ± 31.3,115.0 ± 17.6,499.8 ± 202.8,50.0 ± 19.1,131.0 ± 7.1,331.2 ± 155.4,0.52,no detectable alteration; also recorded: not observed,22 fold and 22.5 ± 9.1 fold,29 fold and 29.5 ± 13.0 fold,45 fold and 45.7 ± 10.3 fold,107 fold and 107.9 ± 51.9 fold,111 fold and 111.1 ± 38.0 fold,105 fold and 105.7 ± 21.2 fold,160 fold and 160.6 ± 12.6 fold,140 fold and 140.9 ± 65.1 fold,130 fold and 129.9 ± 35.5 fold,"Reversing parameter: fold decrease of IC50, verapamil (KB V1 cells [2]; KB V1, 1 μM test compound): 9.0 ± 9.7 fold; Reversing parameter: fold decrease of IC50 of Doxorubicin (KB V1 cells [2]; KB V1, 1 μM test compound): 8.9 ± 2.3 fold; Reversing parameter: fold decrease of IC50 of Puromycin (KB V1 cells [2]; KB V1, 1 μM test compound): 37.0 ± 14.4 fold; Reversing parameter: fold decrease of IC50 of Vinblastine (KB V1 cells [2]; KB V1, 1 μM test compound): 2.3 ± 0.8 fold; Resistant ratio (K562-DR cells): 1.29; Resistant ratio (HepG2-DR cells [6]): 1.29"
